One may read the LD50 as the dose at which mortality reaches 50%.

Structures are written as SMILES.

Consider twelve compounds from patent US4710578A, “Isothiuronium salts” (Peremartoni Vegyipari Vallalat, priority 1984, dated 1987).

The test system of data set [1] is neutrophilic granulocytes, lymphocytes and macrophages. Briefly: Preliminary rapid test: immunostimulant effect. The class given is in vivo, CFLP male mice. The following applies: oral, one-tenth of LD50; 24 hours.
For data set [2], the system named is neutrophylic granulocytes and limphocytes. The following applies: mouse, in vivo, po.
The subject of a further data set is NK-ly-ascites lymphoma. Briefly: NK-ly-ascites lymphoma in vivo. Details: species or system CFLP male mice. The conditions noted are these: for Activity against NK-ly-ascites tumor: concentration below one-tenth of the LD50 value; for Survival rate and lifetime: dose-dependant.
The next data set relates to NK-yl ascites tumor. Briefly: Combinations with known cytostatic agents in NK-ly ascites tumor. The class given is in vivo, CFLP mice. The conditions noted are these: with cyclophosphamide, carnomustine, degranol, dibromo dulcitol or dibromo mannitol.

`CSC(=N)NC(=N)N` [Example 9, N-Aminoiminomethyl-S-Methyl-Isothiuronium Iodide]: the Immunostimulant effect result in data set [1] was “medium (Medium effect is observed if the increase of cell number or activity over the control amounts to 20%)”. Besides, the LD50 at 24 h in “in vivo” (po) is 2320 ± 220 mg/kg.

As for `CCCSC(=N)NC(=N)N` [Example 10, N-Aminoiminomethyl-S-n-Propyl-Isothuronium Bromide], in data set [1], the Immunostimulant effect entry is reported as “medium (Medium effect is observed if the increase of cell number or activity over the control amounts to 20%)”. In data set [2], this compound had a Toxic effect of 0. Also, the LD50 at 24 h in “in vivo” (po) was found to be 2800 ± 260 mg/kg.

In the case of `C=CCSC(=NC)NC(=N)N` [Example 20, N-Aminoiminomethyl-N'-Methyl-S-Allyl-Isothiuronium Chloride], the Immunostimulant effect entry in data set [1] is listed as “weak”. In addition, in the data set with NK-ly-ascites lymphoma, the “Activity against NK-ly-ascites tumor” value is “active agains Nk-ly-ascites tumor in a concentration below one-tenth of the LD50 value”; the “Survival rate and lifetime” value was “increase survival rate and lifetime in a dose-dependant manner”. Further, the Toxic effect in data set [2] amounted to 0. In addition, the LD50 at 24 h in the data set “in vivo” (ip) worked out at 75 ± 6.3 mg/kg. For the same compound, in the data set “in vivo” (po), the 50% lethal dose (LD50) at 24 h was found to be 600 ± 54 mg/kg.

Regarding `C=CCSC(=NC(C)C)NC(=N)N` [Example 21, N-aminoiminomethyl-N'-Isopropyl-S-Allyl-Isothiuronium Chloride], the Immunostimulant effect entry in data set [1] is on record as “weak”. The compound also displayed a Toxic effect in data set [2] of 0. The results for the LD50 at 24 h in the data set “in vivo” (ip) and in the data set “in vivo” (po) were 32 ± 4 mg/kg and 280 ± 26 mg/kg, respectively.

For the compound `CCSC(=N)NC(=N)N` [Example 23, N-aminoiminomethyl-S-ethyl-isothiuronium bromide], the Immunostimulant effect result in data set [1] is “strong (The effect is strong if the increase of the cell number and activity of the immune system is more than 20% higher than the control)”. The Toxic effect in data set [2] is 0. This compound came in with an LD50 at 24 h in the data set “in vivo” (po) of 3080 ± 290 mg/kg.

Turning to `CC(C)SC(=N)NC(=N)N` [Example 24, N-aminoiminomethyl-S-isopropyl-isothiuronium bromide], the Immunostimulant effect result in data set [1] is “medium (Medium effect is observed if the increase of cell number or activity over the control amounts to 20%)”. Also, the Toxic effect in data set [2] was found to be 0. Further, the LD50 at 24 h in the data set “in vivo” (po) amounted to 2260 ± 210 mg/kg.

In the case of `CCCCSC(=N)NC(=N)N` [Example 25, N-aminoiminomethyl-S-n-butyl-isothiuronium bromide], the Immunostimulant effect result in data set [1] is recorded as “medium (Medium effect is observed if the increase of cell number or activity over the control amounts to 20%)”. The compound also displayed a Toxic effect in data set [2] of 0. The LD50 at 24 h in the data set “in vivo” (po) was 2700 ± 310 mg/kg.

For the compound `CC(C)CCSC(=N)NC(=N)N` [Example 26, N-aminoiminomethyl-S-isoamyl-isothiuronium bromide], the Immunostimulant effect entry in data set [1] is “medium (Medium effect is observed if the increase of cell number or activity over the control amounts to 20%)”. Also, in data set [2], the Toxic effect is reported as 0. In the data set “in vivo” (po), this compound returned a 50% lethal dose (LD50) at 24 h of 2260 ± 241 mg/kg.

Regarding `N=C(N)NC(=N)SCCCO` [Example 29, N-aminoiminomethyl-S-(3-hydroxy-propyl)-isothiuronium bromide], the Immunostimulant effect entry in data set [1] is “medium (Medium effect is observed if the increase of cell number or activity over the control amounts to 20%)”. Moreover, the Toxic effect in data set [2] turned out to be 0. Also, the 50% lethal dose (LD50) at 24 h in the data set “in vivo” (po) was 2860 ± 180 mg/kg.

Regarding `C#CCSC(=N)NC(=N)N` [Example 31, N-aminoiminomethyl-S-propargyl-isothuronium bromide], the LD50 at 24 h in “in vivo” (po) is 90 mg/kg.

Regarding `C=C(C)CSC(=N)NC(=N)N` [Example 44, N-(Aminoiminomethyl)-S-Metallyl-Isothiuronium-Bromide], in data set [1], the Immunostimulant effect result is reported as “medium (Medium effect is observed if the increase of cell number or activity over the control amounts to 20%)”. Also, the Toxic effect in data set [2] was determined as 0. Moreover, the LD50 at 24 h in the data set “in vivo” (po) is 1640 ± 210 mg/kg.

Turning to `C=CCN=C(NC(=N)N)SCC=C` [Example 45, N-(Aminoiminomethyl)-N'-Allyl-S-Allyl-Isothiuronium Bromide], in data set [1], the Immunostimulant effect result was “weak”. For the same compound, in the data set on NK-ly-ascites lymphoma, the “Activity against NK-ly-ascites tumor” value is listed as “active agains Nk-ly-ascites tumor in a concentration below one-tenth of the LD50 value”; the “Survival rate and lifetime” value was “increase survival rate and lifetime in a dose-dependant manner”. Besides, in the data set on NK-yl ascites tumor, the “Antitumor effect of combination vs cytostatic agent alone” value is on record as “the antitumor effect was strengthened” and the “Immunodepression of combination vs cytostatic agent alone” value is “immunodepression decreased”. Moreover, the Toxic effect in data set [2] turned out to be 0. In addition, in the data set “in vivo” (ip), the LD50 at 24 h stood at 36 ± 4 mg/kg. Besides, in the data set “in vivo” (po), the LD50 at 24 h was found to be 380 ± 41 mg/kg.
